Data reported in patent US20260263417A1, “STRUCTURE-BASED OPTIMIZATION OF S6K2 INHIBITOR CD02 TO TARGET MELANOMA” (THE WISTAR INSTITUTE OF ANATOMY AND BIOLOGY, priority 2023, published 2026).
Residues, ends and D or L forms follow the SMILES beside them. *: point of attachment. Cbz = O=C(OCc1ccccc1)*; CH2F = FC*

Columns and labels:
[1] = test system: MAPKi-R NRAS-mutant melanoma cells; assay type: cell-based; conditions: for effect on FNB/DHA-induced cell death: M93-047, GSH 2 mM, zVAD 20 μM, Kira6 0.2 μM pre-treatment; for effect on cell death induced by S6K2 depletion (S6K2 shRNA): M93-047 cells transduced with S6K2 shRNA; for effect on S6K2i (CD02)-induced cell death: MAPKi-R cells treated with CD02
Description: Floating and attached cells were harvested, washed and stained with PSVue 643/PI or Annexin V-FITC/PI. Annexin V staining was performed as described previously (45), with 15 min Annexin V incubation. For PSVue/PI staining, cells were incubated in 3 μM PSVue 643/TES for 10 min at RT, washed in TES buffer and resuspended in PI (5 μg/mL)/TES for 15 min at RT. Cell death (Annexin V^+/PSVue^+ or PI^+) was quantified by FACS (LSRII 18 color analyzer, BD Biosciences) and analyzed using FlowJo software v.10.7.2.

[2] = test system: pS6 (S240/244) in MAPKi-S cells; assay: Phosphorylation of S6K/S6 in MAPKi-S cells (immunoblotting, RPPA, flow cytometry); assay type: cell-based, human
Description: (§1) Cells were lysed with RIPA buffer (50 mM Tris-HCl, pH 7.4, 150 mM NaCl, 1% NP-40, 0.5% sodium deoxycholate, 1 mM EDTA, 2.5 mM sodium pyrophosphate, 0.05% or 0.1% SDS) supplemented with sodium vanadate (0.2 mM) and protease inhibitor cocktail (Sigma-Aldrich #11697498001). Immunoblotting was performed as previously described (Echevarria-Vargas et al., 2018). Immunoblots were imaged with an Odyssey Infrared Imaging System (LI-COR Biosciences).
(§2) Flow cytometry. Cells were fixed in 90% ice cold EtOH/PBS and stored at −20° C. Cells were washed twice with PBS followed by 1 h incubation at RT with incubation buffer (1% BSA/PBS) containing primary antibodies (1:500 pS6 S240/244 Cell Signaling Technology #5364; 1:1000 HA Sigma-Aldrich #H9658). Samples were washed once (1×PBS), incubated for 30 min at RT with incubation buffer containing secondary antibodies diluted to 1:500 (goat anti-mouse Alexa Fluor 488 ThermoFisher #A11029; goat anti-rabbit Alexa Fluor 647 #A21244), washed (1×PBS) and resuspended in incubation buffer for analysis by flow cytometry (BD LSRII 14-color flow cytometer analyser; Alexa Fluor 488 and APC filter sets). Data analyses were performed using FlowJo software to calculate pS6 positivity. For 4-HNE staining, cells were fixed with 4% paraformaldehyde for 15 min, washed with PBS and stored at 4° C. […]

[3] = test system: pS6 (S240/244) in MAPKi-R cells; assay: Phosphorylation of S6K/S6 in MAPKi-R cells (immunoblotting, RPPA, flow cytometry); assay type: cell-based, human
Description: as §1, §2

[4] = test system: spliced XBP-1 and PPARα in M93-047 cells; assay: Spliced XBP-1 and PPARα levels by qRT-PCR / Western blotting; assay type: cell-based, human
Description: as §1
Cell pellets were homogenized using QIAshredder (QIagen #79656) and RNA extracted with PureLink RNA mini kit (Thermo Fisher Scientific, #12183018A). DNA was removed by on-column PureLink DNase treatment (Thermo Fisher Scientific, #12185010). First-strand cDNA was synthesized using Maxima cDNA kit (Thermo Scientific™ #K1642). Real time qPCR was performed using SYBR green PCR Master Mix (Applied Biosystems #4385612). Tumor samples for qRT-PCR were preserved in RNAlater solution (Invitrogen #AM7020).

[5] = test system: M93047 and WM3623 cell lines; assay: Preliminary in vitro studies against MAPKi-R cell lines; assay type: cell-based, human; conditions: at lower concentrations

Structure (SMILES)	effect on FNB/DHA-induced cell death [1]	effect on cell death induced by S6K2 depletion (S6K2 shRNA) [1]	effect on S6K2i (CD02)-induced cell death [1]	further results
N[C@@H](CCC(=O)N[C@@H](CS)C(=O)NCC(=O)O)C(=O)O [GSH, glutathione]	attenuated FNB/DHA-induced cell death	also attenuated cell death	attenuate S6K2i-induced cell death	–
COc1ncc(-c2ccc3nccc(-c4ccnnc4)c3c2)cc1NS(=O)(=O)c1ccc(F)cc1F [GSK458, GSK2126458]	–	–	–	phosphorylation of S6K / S6 [2]: decreased phosphorylation of S6; phosphorylation of S6K / S6 [3]: effectively suppressed pS6
CC(C)(C)c1nc(-c2ccc(NC(=O)Nc3cccc(C(F)(F)F)c3)c3ccccc23)c2c(N)nccn12 [Kira6]	attenuated FNB/DHA-induced cell death	partially attenuated cell death	attenuate S6K2i-induced cell death	upregulation of XBP-1 splicing and PPARα expression caused by S6K2 knockdown ([4]; M93-047, S6K2 shRNA): suppressed; activation of XBP-1 by FNB/DHA ([4]; cotreatment with 0.2 μM Kira6): suppressed the activation of XBP-1
Cn1cc(-c2ccc(F)c(C(F)(F)F)c2)nc1C1CCN(c2ncnc3[nH]ncc23)CC1 [LY2584702]	–	–	–	cytotoxicity with ectopically expressed activated S6K1 ([1]; M93-047 with S6K1^T389E, 1, 5, 10 μM, 48 hours): enhanced LY4702 cytotoxicity
O=C(CCl)Nc1ccc(-c2cc(O)cc3sc(=O)oc23)cc1 [MM-113]	–	–	–	potency compared with RT12 [5]: better potency at lower concentrations
CC(=O)N[C@@H](CS)C(=O)O [NAC]	–	protects M93047 cells from S6K2sh induced cell death	rescues S6K2i-induced cell death	–
O=C(Nc1ccc2[nH]nc(-c3ccncc3)c2c1)[C@@H]1CCN(CC(=O)N2CCN(c3ccc(-c4ncccn4)cc3)CC2)C1 [SCH984, SCH772984]	–	–	–	phosphorylation of S6K / S6 [2]: decreased phosphorylation of S6; phosphorylation of S6K / S6 [3]: no effect on phosphorylation of S6
CCOC(=O)c1ccc(NC2CCCCC2)c(N)c1 [ferrostatin-1]	–	did not attenuate cell death	–	–
COC(=O)C[C@H](NC(=O)[C@H](C)NC(=O)[C@@H](NC(=O)OCc1ccccc1)C(C)C)C(=O)CF [zVAD, zVAD(OMe)-FMK] (Cbz-Val-Ala-Asp(OMe)-CH2F)	attenuated FNB/DHA-induced cell death	also attenuated cell death	attenuate S6K2i-induced cell death	–
